From the supplement of paper PMC10307832

Tests used:
Experiment in all cases: relative viability (nuclei count vs DMSO), 5 days (fraction); higher = more cells survive
[1] = compound: Cc1ccc(-n2nc(C(C)(C)C)cc2NC(=O)Nc2ccc(OCCN3CCOCC3)c3ccccc23)cc1 [Doramapimod] + Cc1cc(Nc2cc(N3CCN(C)CC3)nc(Sc3ccc(NC(=O)C4CC4)cc3)n2)n[nH]1 [Tozasertib] (partner 0.1 µM)
How it was run: (§1)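 Nuclei were stained with Hoechst during a one-step fixation (final 0.05% Triton X-100, 1% formaldehyde, 1 ug/ml Hoechst) carried out 5 days after dosing, then counted on 4× images. The cells, lung cancer lines in 1536-well plates, had been dosed by pin tool the day after seeding with one drug alone or a fixed anchor-drug dose plus five library-drug doses (not always all listed) in √10 steps. Relative viability is the nuclei count in treated wells divided by that in vehicle wells, and each value is the median of duplicate plates.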

[2] = compound: C1=CC=C2C(=C1)C=CC(=C2SSC3=C(C=CC4=CC=CC=C43)O)O [IPA-3] + CC(=O)c1c(C)c2cnc(Nc3ccc(N4CCNCC4)cn3)nc2n(C2CCCC2)c1=O [Palbociclib] (partner 0.5 µM)
How it was run: as §1

[3] = compound: Cn1c(Nc2ccc(C(F)(F)F)cc2)nc2cc(Oc3ccnc(-c4ncc(C(F)(F)F)[nH]4)c3)ccc21 [RAF265] + CC1(C)CCC(c2ccc(Cl)cc2)=C(CN2CCN(c3ccc(C(=O)NS(=O)(=O)c4ccc(N[C@H](CCN5CCOCC5)CSc5ccccc5)c(S(=O)(=O)C(F)(F)F)c4)cc3)CC2)C1 [Navitoclax] (partner 0.5 µM)
How it was run: as §1

[4] = compound: Cn1c(Nc2ccc(C(F)(F)F)cc2)nc2cc(Oc3ccnc(-c4ncc(C(F)(F)F)[nH]4)c3)ccc21 [RAF265] + NC(=O)Nc1cc(-c2cccc(F)c2)sc1C(=O)N[C@H]1CCCNC1 [AZD7762] (partner 0.2 µM)
How it was run: as §1

Row | Cell Line | relative viability ([1]; first compound 0.02 µM) | relative viability ([1]; first compound 0.06325 µM) | relative viability ([1]; first compound 0.2 µM) | relative viability ([1]; first compound 0.6325 µM) | relative viability ([1]; first compound 2 µM) | relative viability ([2]; first compound 0.2 µM) | relative viability ([2]; first compound 0.6325 µM) | relative viability ([2]; first compound 2 µM) | relative viability ([2]; first compound 6.325 µM) | relative viability ([2]; first compound 20 µM) | relative viability ([3]; first compound 0.01 µM) | relative viability ([3]; first compound 0.03162 µM) | relative viability ([3]; first compound 0.1 µM) | relative viability ([3]; first compound 0.3162 µM) | relative viability ([3]; first compound 1 µM) | relative viability ([4]; first compound 0.01 µM) | relative viability ([4]; first compound 0.03162 µM) | relative viability ([4]; first compound 0.1 µM) | relative viability ([4]; first compound 0.3162 µM) | relative viability ([4]; first compound 1 µM)
1 | NCI-H661 | 0.36 | 0.353 | 0.342 | 0.366 | 0.346 | 0.406 | 0.434 | 0.389 | 0.435 | 0.366 | – | – | – | – | – | – | – | – | – | –
2 | NCI-H1299 | – | – | – | – | – | – | – | – | – | – | 1.03 | 0.988 | 1.06 | 0.989 | 0.738 | – | – | – | – | –
3 | NCI-H1623 | 0.424 | 0.426 | 0.411 | 0.46 | 0.318 | – | – | – | – | – | – | – | – | – | – | – | – | – | – | –
4 | NCI-H1648 | 0.442 | 0.498 | 0.58 | 0.353 | 0.481 | 0.222 | 0.223 | 0.248 | 0.263 | 0.229 | – | – | – | – | – | 0.698 | 0.514 | 0.804 | 0.758 | 0.567
5 | NCI-H1650 | 0.416 | 0.408 | 0.395 | 0.382 | 0.357 | 0.472 | 0.314 | 0.328 | 0.311 | 0.327 | 1.17 | 1.18 | 1.53 | 1.19 | 1.22 | – | – | – | – | –
6 | NCI-H2009 | 0.727 | 0.799 | 0.696 | 0.663 | 0.556 | 0.203 | 0.202 | 0.2 | 0.231 | 0.151 | 1.19 | 1.15 | 1.16 | 1.13 | 0.858 | – | – | – | – | –
7 | NCI-H2023 | 0.333 | 0.352 | 0.3 | 0.304 | 0.247 | 0.441 | 0.347 | 0.414 | 0.442 | 0.41 | 1.09 | 1.02 | 1.06 | 1.09 | 0.908 | – | – | – | – | –
8 | NCI-H2228 | 0.263 | 0.296 | 0.258 | 0.263 | 0.242 | 0.825 | 0.71 | 0.474 | 1 | 0.752 | 0.741 | 0.971 | 0.903 | 0.945 | 0.726 | – | – | – | – | –
9 | SK-LU-1 | 0.348 | 0.41 | 0.314 | 0.347 | 0.277 | 0.446 | 0.341 | 0.374 | 0.401 | 0.411 | 1.41 | 0.682 | 0.718 | 0.744 | 0.273 | – | – | – | – | –
10 | SK-MES-1 | 0.94 | 0.869 | 0.81 | 0.856 | 0.781 | 0.326 | 0.308 | 0.332 | 0.277 | 0.238 | 1.11 | 1.01 | 1.01 | 0.361 | 0.209 | – | – | – | – | –
11 | SW 1573 | 0.267 | 0.208 | 0.198 | 0.22 | 0.157 | 0.492 | 0.332 | 0.412 | 0.363 | 0.0729 | 1.23 | 0.984 | 1.04 | 0.89 | 0.389 | – | – | – | – | –
